Where two headings read alike, the source gives them in different places. A value given as a limit tells only on which side of the number the result lay.

These results are taken from patent US10639295B2 (priority 2016, dated 2020).

For data set [1] the following is noted: for concentration in the lung compared with 4′-demethylepipodophyllotoxin original drug group and etoposide control group: 5 minutes after administration by tail intravenous injection (FIG. 1); for time for which a relatively high drug concentration in the lung lasted (retention time in the lung): after tail intravenous injection; for drug concentration in the lung compared with 4′-demethylepipodophyllotoxin original drug group and etoposide control group: at each time point after tail intravenous injection (FIG. 2); for lung relative uptake rate Re (AUC0-t,lung compound / AUC0-t,lung drug) / peak concentration ratio Ce in the lung (Cmax,lung compound / Cmax,lung drug): versus 4′-demethylepipodophyllotoxin original drug group; for lung relative uptake rate Re (AUC0-t,lung compound / AUC0-t,lung drug) / peak concentration ratio Ce in the lung (Cmax,lung compound / Cmax,lung drug) / lung relative uptake rate Re (AUC0-t,lung compound / AUC0-t,lung control) / peak concentration ratio Ce in the lung (Cmax,lung compound / Cmax,lung control): tail intravenous injection; for lung relative uptake rate Re (AUC0-t,lung compound / AUC0-t,lung drug) / lung relative uptake rate Re (AUC0-t,lung compound / AUC0-t,lung control) / peak concentration ratio Ce in the lung (Cmax,lung compound / Cmax,lung control): equimolar doses; for peak concentration ratio Ce in the lung (Cmax,lung compound / Cmax,lung drug): equimolar to 10.00 mg/kg 4′-demethylepipodophyllotoxin; for lung relative uptake rate Re (AUC0-t,lung compound / AUC0-t,lung control) / peak concentration ratio Ce in the lung (Cmax,lung compound / Cmax,lung control): versus etoposide control group. Here is the method:
16 mg of 4′-demethylepipodophyllotoxin was accurately weighed, 5% DMSO, 20% polyethylene glycol 400 and 20% absolute ethanol were added to help dissolution, so as to prepare an injection for intravenous injection with a concentration of 2 mg/mL. 28 mg of etoposide was accurately weighed, and 5% DMSO, 20% polyethylene glycol 400 and 20% absolute ethanol were added to help dissolution, so as to prepare an injection for intravenous injection with a concentration of 3.5 mg/mL. 30.40 mg of compound DC or DP was accurately weighed, and 5% DMSO, 20% polyethylene glycol 400 and 20% absolute ethanol were added to help dissolution, so as to prepare an injection for intravenous injection with a concentration of 3.8 mg/mL.
200 Kunming mice (male, 20±2 g) were used, which were fasted for 12 h before the experiment and given free access to water. In the experiment, they were randomly divided into 4 groups and administered by tail intravenous injection. The administration of 4′-demethylepipodophyllotoxin was carried out with a dosage of 10.00 mg/kg. Etoposide, compound DC and compound DP were administered in equimolar amount as 4′-demethylepipodophyllotoxin, and the administration dosages were etoposide 14.71 mg/kg, compound DC 15.78 mg/kg, and compound DP 15.38 mg/kg, respectively. 5 minutes, 15 minutes, 30 minutes, 1 hour, 2 hours, 4 hours, 8 hours, 12 hours, 24 hours and 48 hours after administration, the blood was collected and the mice sacrificed in all groups. The whole blood was put into sodium heparin-containing EP tubes, centrifuged at 5000 rpm at 4° C. for 5 min, and the upper plasma was collected and frozen at −40° C. for use. The hearts, livers, spleens, lungs, kidneys, brains and pancreas of the mice were immediately separated, and the residual blood was washed away with physiological saline. The remaining water on the surfaces of the organs was absorbed with filter papers. The organs were weighed and physiological saline 2 times the volume of the organs was added for homogenization.
0.1 mL of mouse plasma and 0.1 mL of tissue homogenate were taken and put into a 0.5 mL EP tube, 0.3 mL of methanol was added to all the samples as a protein precipitant. The sample was subjected to vortex vibration for 5 minutes, and then centrifuged at 13000 rpm at 4° C. for 10 min. The supernatant was taken and filtered with a 0.22 μm organic filtration membrane, and 1 μL of the sample was taken and subjected to LC-MS/MS analysis.
LC-MS/MS Analysis Condition
Liquid phase conditions: Agilent 1200 Series High Resolution Rapid LC System (RRLC); chromatographic column: Agilent Diamonsil ODS column (50 mm×4.6 mm, 1.8 μm); mobile phase: for 4′-demethylepipodophyllotoxin, methanol:0.1% formic acid aqueous solution=50:50, for etoposide, acetonitrile:0.1% formic acid aqueous solution=35:65, for compound DC, methanol:0.1% formic acid aqueous solution=[…], and for compound DP, methanol:0.1% formic acid aqueous solution=34:66; flow rate: 0.4 mL/min; column temperature: 30° C.; and injection volume: 1 μL.
Mass spectra conditions: Agilent Triple Quadrupole Mass Spectrometry (6410B); the analytes were subjected to a multiple reaction monitoring (MRM) in positive mode: for 4′-demethylepipodophyllotoxin, etoposide, compound DC and compound DP, fragmentation voltages were 97 V, 148 V, 190 V and 169 V, respectively; collision cell voltages were 20 V, 12 V, 52 V and 36 V, respectively; and ionic reactions (m/z) were 401.1→185, 589.2→229, 632.3→86.1 and 616.3→58.1, respectively; drying gas temperature: 350° C.; drying gas flow rate: 10 L/min; atomization air pressure: 30 psi; and the capillary voltage: 4000V.
Each pharmacokinetic parameters were calculated by DAS3.2.5 software, and the formula for calculating the targeting ability evaluation index, i.e., peak concentration ratio Ce and relative uptake rate Re, were shown hereinafter. Celung=(Cmax,lung)compound/(Cmax,lung)drug or control Relung=(AUC0-t,lung)compound/(AUC0-t,lung)drug or control

The next data set relates to mouse melanoma B16 cells. The class given is in vivo, C57BL/6 mice. Conditions: intravenous injection, equimolar to 5.00 mg/kg 4′-demethylepipodophyllotoxin; for curative effect on lung metastatic tumor: 22nd day after modeling; for tumor-bearing lung weight / number of lung metastasis tumor nodules: sacrificed on the 22nd day; for tumor-bearing lung weight: compared with control group (FIG. 3); for number of lung metastasis tumor nodules: compared with control group (FIG. 4). The protocol: The experiment was performed according to the method reported by Small, 2014(3):524-535. C57BL/6 mice (male, 20±2 g, 6 to 8 week-old) were used and intravenously injected with mouse melanoma B16 cells in logarithmic growth phase. 5×10^5 cells were injected into each mouse to establish a melanoma lung metastasis model, and the mice were randomly divided into 5 groups (recorded as the 0th day). The injections for intravenous injecting used in the experiment were prepared according to Example 6. On the 4th, 7th and 13th day after the modeling, each group was subjected to intravenous injection for […]. 4′-demethylepipodophyllotoxin was provided at a dosage of 5.00 mg/kg, and etoposide, compound DC and compound DP were provided at equimolar amount with 4′-demethylepipodophyllotoxin, and the administration dosages were etoposide 7.36 mg/kg, compound DC 7.89 mg/kg, and compound DP 7.69 mg/kg, respectively. The control group was administered with equal amount of solvent. All mice were housed normally and sacrificed on the 22nd day after modeling. The lung tissue was immediately separated out, washed with physiological saline and weighed, and the number of tumor nodules was calculated.

With `COc1cc(C2c3cc4c(cc3C(O)C3COC(=O)C23)OCO4)cc(OC)c1O` (stereo not shown) [4′-demethylepipodophyllotoxin, reference compound], in data set [1] (one hour after the administration, tail intravenous injection 10.00 mg/kg), the “concentration in the lung” value is given as “below the detectable limit”. Moreover, in the data set on mouse melanoma B16 cells, the “curative effect on lung metastatic tumor” value was “improved the lung metastatic tumor to a certain degree”, the tumor-bearing lung weight entry is on record as “reduced the tumor-bearing lung weight” and the “number of lung metastasis tumor nodules” value is “decreases the number of lung metastasis tumor nodules”.
Turning to `COc1cc([C@@H]2c3cc4c(cc3[C@@H](NC(=O)c3ccc(CN(C)CCCN(C)C)cc3)[C@H]3COC(=O)[C@H]23)OCO4)cc(OC)c1O` [compound DC], in data set [1], the “concentration in the lung compared with 4′-demethylepipodophyllotoxin original drug group and etoposide control group” value is given as “much higher”; the “time for which a relatively high drug concentration in the lung lasted (retention time in the lung)” value is on record as “up to 48 hours”; the “drug concentration in the lung compared with 4′-demethylepipodophyllotoxin original drug group and etoposide control group” value was “much higher”; the “lung relative uptake rate Re (AUC0-t,lung compound / AUC0-t,lung drug)” value amounted to 168.38 times. Moreover, in data set [1], the “peak concentration ratio Ce in the lung (Cmax,lung compound / Cmax,lung drug)” value came to 5.29 times, the “lung relative uptake rate Re (AUC0-t,lung compound / AUC0-t,lung control)” value came to 98.16 times and the “peak concentration ratio Ce in the lung (Cmax,lung compound / Cmax,lung control)” value amounted to 4.54 times. In addition, in the data set on mouse melanoma B16 cells, the “curative effect on lung metastatic tumor” value is on record as “best curative effects”, the tumor-bearing lung weight result is “least” and the “number of lung metastasis tumor nodules” value is “least”.
As to `COc1cc([C@@H]2c3cc4c(cc3[C@@H](NC(=O)c3ccc(CN5CCN(C)CC5)cc3)[C@H]3COC(=O)[C@H]23)OCO4)cc(OC)c1O` [compound DP], in data set [1], the “concentration in the lung compared with 4′-demethylepipodophyllotoxin original drug group and etoposide control group” value is listed as “much higher”; the “time for which a relatively high drug concentration in the lung lasted (retention time in the lung)” value is not above 12 h; the “drug concentration in the lung compared with 4′-demethylepipodophyllotoxin original drug group and etoposide control group” value is recorded as “much higher”; the “lung relative uptake rate Re (AUC0-t,lung compound / AUC0-t,lung drug)” value came out at 42.56 times. Also, in data set [1], the “peak concentration ratio Ce in the lung (Cmax,lung compound / Cmax,lung drug)” value was 5.41 times, the “lung relative uptake rate Re (AUC0-t,lung compound / AUC0-t,lung control)” value came out at 24.81 times and the “peak concentration ratio Ce in the lung (Cmax,lung compound / Cmax,lung control)” value amounted to 4.65 times. In the data set on mouse melanoma B16 cells, the “curative effect on lung metastatic tumor” value was “best curative effects”, the tumor-bearing lung weight entry was “least” and the “number of lung metastasis tumor nodules” value is listed as “least”.
As for `COc1cc([C@@H]2c3cc4c(cc3[C@@H](O[C@@H]3O[C@@H]5CO[C@@H](C)O[C@H]5[C@H](O)[C@H]3O)[C@H]3COC(=O)[C@H]23)OCO4)cc(OC)c1O` [etoposide, reference compound], the “concentration in the lung” value in data set [1] (mouse, in vivo, iv, 14.71 mg/kg) is recorded as “below the detectable limit”. Besides, in the data set with mouse melanoma B16 cells, the “curative effect on lung metastatic tumor” value is “improved the lung metastatic tumor to a certain degree”, the tumor-bearing lung weight entry is given as “reduced the tumor-bearing lung weight” and the “number of lung metastasis tumor nodules” value was “decreases the number of lung metastasis tumor nodules”.
